Source: patent US12202844B2, “MAP4K1 inhibitors” (Blueprint Medicines Corporation, priority 2021, dated 2025)
Like-named read-outs stand apart in the source and are kept apart here.

Assays:
[1] = biological target: T1, MAP4K1 (HPK1) (Homo sapiens, UniProt Q92918); experiment: Inhibition of MAP4K1 biochemical enzymatic activity (EZReader 2 electrophoretic mobility shift); details: HPK1 (Invitrogen), S6K2tide 1.5 μM, 120 min; ATP 26 μM or 1000 μM (not given)
T1 construct: purchased Invitrogen
Outline: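 Untreated enzyme (0.1-15 nM) was incubated with 1.5 μM fluorescent peptide and 20-1000 μM ATP (apparent Km or 1 mM) in HEPES pH 7.5, MgCl2, DTT, Brij 35 at 25° C. for 60-180 min, with 1% DMSO and a 10-point 4-fold compound series. After an EDTA stop, product/substrate peptide peak ratio was read by mobility shift.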

[2] = tested on: Primary T Cell (expanded CD3+ T cells); experiment: T cell enhancement of cytokines: IL2 measurement (HTRF) in stimulated expanded CD3+ T cells; format: cell-based, human; details: plate-bound anti-CD3 and soluble anti-CD28, 24 h, IL2 by HTRF, read-out: IL-2 Primary T Cell EC50
Description: T cells are isolated from whole blood of healthy donors by immunomagnetic negative selection following manufacture's protocol (StemCell Technologies, human T cell isolation kit). Purity of isolated cells is assessed by flow cytometry and yields 95-98% CD3^+ T cells. For expansion of T cells, 1×10^6 cells/well are plated in serum free cell expansion media (ThermoFisher) containing 30 U of recombinant human IL2 (R&D) and stimulated with 25 ul of CD3/CD28 beads (Invitrogen) in 24 well plates for 3-4 days. T cells are then expanded in 175 cm flasks and maintained at a cell density of 1 to 2.5×10^6 cells/ml days by addition of ⅔ of fresh media every 2-3 days. After 10-14 days, cells are frozen in BamBanker freezing media (Thermo) and stored in liquid nitrogen.
For IL2 measurement, expanded CD3^+ T cells are dispensed at 100K cells/well (cultured in X-VIVO 10 Serum-free media) and are stimulated with plate-bound anti-CD3 and soluble anti-CD28 in the presence of vehicle or compound of the disclosure at various concentrations for 24 h. As outlined in the manufacturer's protocol (Cisbio), 16 μL of conditioned media is transferred to a white 384-well low volume plate. Following a 24 h incubation with the anti-IL2 antibodies, the homogenous time resolved fluorescence (HTRF) is measured.

T1 sequence (Q92918 whole entry): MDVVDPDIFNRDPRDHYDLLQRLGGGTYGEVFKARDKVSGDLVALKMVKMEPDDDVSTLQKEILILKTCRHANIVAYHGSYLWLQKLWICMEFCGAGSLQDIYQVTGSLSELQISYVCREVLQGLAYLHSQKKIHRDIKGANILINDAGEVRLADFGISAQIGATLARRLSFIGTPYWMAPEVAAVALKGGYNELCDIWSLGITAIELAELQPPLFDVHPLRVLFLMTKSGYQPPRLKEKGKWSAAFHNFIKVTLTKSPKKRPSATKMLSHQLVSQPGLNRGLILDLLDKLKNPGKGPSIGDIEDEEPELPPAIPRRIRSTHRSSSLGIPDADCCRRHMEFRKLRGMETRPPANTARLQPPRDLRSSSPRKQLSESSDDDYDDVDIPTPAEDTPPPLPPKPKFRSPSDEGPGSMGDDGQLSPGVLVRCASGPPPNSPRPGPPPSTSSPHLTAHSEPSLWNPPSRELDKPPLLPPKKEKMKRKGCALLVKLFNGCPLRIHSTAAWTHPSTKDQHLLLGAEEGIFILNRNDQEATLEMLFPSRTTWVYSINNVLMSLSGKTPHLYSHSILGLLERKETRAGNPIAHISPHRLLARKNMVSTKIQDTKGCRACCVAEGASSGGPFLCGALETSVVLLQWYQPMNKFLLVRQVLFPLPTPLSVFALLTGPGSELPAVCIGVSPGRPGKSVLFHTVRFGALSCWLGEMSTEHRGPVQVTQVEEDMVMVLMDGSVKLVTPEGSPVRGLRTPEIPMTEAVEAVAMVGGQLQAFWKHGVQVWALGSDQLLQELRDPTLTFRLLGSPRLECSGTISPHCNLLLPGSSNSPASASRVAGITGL

Row | Structure (SMILES) | IC50 [1] [nM] | EC50 ([2]; Homo sapiens, T-cell, 24 h) [nM] | EC50 [2] [nM]
1 | C[C@@H]1c2nc(Nc3cc4c(C(C)(C)N)cnc(O[C@H]5C[C@H](CS(C)(=O)=O)C5)c4cn3)ccc2C(=O)OC1(C)C (single isomer, unassigned) [Compound 75] | 0.07 | 28 | –
2 | C[C@@H]1c2nc(Nc3cc4c(C(C)(C)N)cnc(O[C@H]5C[C@@H](CS(C)(=O)=O)C5)c4cn3)ccc2C(=O)OC1(C)C (single isomer, unassigned) [Compound 76] | 0.07 | 25 | –
3 | CCC[C@@H](N)c1cnc(O[C@H]2C[C@@H](S(C)(=O)=O)C2)c2cnc(Nc3ccc4c(n3)[C@@H](C)C(C)(C)OC4=O)cc12 (single isomer, unassigned) [Compound 79] | 0.34 | 94 | –
4 | CCC[C@@](C)(N)c1cnc(O[C@H](C)CCS(C)(=O)=O)c2cnc(Nc3ccc4c(n3)CC(C)(C)OC4=O)cc12 (single isomer, unassigned) [Compound 85] | 0.37 | 85 | –
5 | CCC[C@@](C)(N)c1cnc(O[C@H](C)CCS(C)(=O)=O)c2cnc(Nc3ccc4c(n3)[C@@H](C)[C@H](C)OC4=O)cc12 (single isomer, unassigned) [Compound 86] | 0.2 | 26 | –
6 | CC[C@@](C)(N)c1cnc(O[C@H](C)CCS(=O)(=O)CC)c2cnc(Nc3ccc4c(n3)[C@@H](C)[C@H](C)OC4=O)cc12 (single isomer, unassigned) [Compound 92] | 0.14 | 15 | –
7 | CC[C@@](C)(N)c1cnc(O[C@H](C)CCS(=O)(=O)CC)c2cnc(Nc3ccc4c(n3)[C@@H](C)[C@H](C)OC4=O)cc12 (single isomer, unassigned) [Compound 93] | 0.19 | – | 9
8 | CCS(=O)(=O)CC[C@@H](C)Oc1ncc(C(C)(C)N)c2cc(Nc3ccc4c(n3)[C@@H](C)C(C)(C)OC4=O)ncc12 (single isomer, unassigned) [Compound 98] | 0.23 | 67 | –
9 | CCS(=O)(=O)CC[C@@H](C)Oc1ncc(C(C)(C)N)c2cc(Nc3ccc4c(n3)[C@@H](C)C(C)(C)OC4=O)ncc12 (single isomer, unassigned) [Compound 99] | 0.39 | – | 72
10 | CC[C@@](C)(N)c1cnc(O[C@H](C)C[C@@H](C)S(C)(=O)=O)c2cnc(Nc3ccc4c(n3)C3(CC3)[C@@H](C)OC4=O)cc12 (single isomer, unassigned) [Compound 104] | 0.17 | 10 | –
11 | C[C@H](C[C@@H](C)S(C)(=O)=O)Oc1ncc([C@H](N)C2CC2)c2cc(Nc3ccc4c(n3)[C@@H](C)C(C)(C)OC4=O)ncc12 (single isomer, unassigned) [Compound 110] | 0.22 | 36 | –
12 | CCS(=O)(=O)C[C@H]1C[C@@H](Oc2ncc(C(C)(C)N)c3cc(Nc4ccc5c(n4)[C@@H](C)C(C)(C)OC5=O)ncc23)C1 (single isomer, unassigned) [Compound 112] | 0.13 | 25 | –
13 | CCC[C@@H](N)c1cnc(O[C@H]2C[C@@H](S(=O)(=O)CC)C2)c2cnc(Nc3ccc4c(n3)[C@@H](C)C(C)(C)OC4=O)cc12 (single isomer, unassigned) [Compound 115] | 0.33 | 59 | –
14 | CCC[C@@](C)(N)c1cnc(O[C@H](C)CCS(C)(=O)=O)c2cnc(Nc3ccc4c(n3)[C@@H](C)C(C)(C)OC4=O)cc12 (single isomer, unassigned) [Compound 126] | 0.17 | 21 | –
15 | CC[C@@](C)(N)c1cnc(O[C@H](C)CCS(=O)(=O)CC)c2cnc(Nc3ccc4c(n3)[C@@H](C)C(C)(C)OC4=O)cc12 (single isomer, unassigned) [Compound 133] | 0.2 | 23 | –
16 | CCS(=O)(=O)[C@H](C)C[C@@H](C)Oc1ncc([C@H](N)C2CC2)c2cc(Nc3ccc4c(n3)[C@@H](C)C(C)(C)OC4=O)ncc12 (single isomer, unassigned) [Compound 138] | 0.3 | 38 | –
17 | CC[C@@](C)(N)c1cnc(O[C@@H](C)CCS(C)(=O)=O)c2cnc(Nc3ccc4c(n3)[C@@H](C)[C@@H](C)OC4=O)cc12 (single isomer, unassigned) [Compound 148] | 0.57 | 26 | –
18 | CC[C@@](C)(N)c1cnc(O[C@@H]2C[C@H](S(C)(=O)=O)[C@H]2C)c2cnc(Nc3ccc4c(n3)[C@@H](C)[C@H](C)OC4=O)cc12 (single isomer, unassigned) [Compound 150] | 0.32 | 14 | –

Row | Structure (SMILES) | IC50 [1] [nM] | EC50 ([2]; Homo sapiens, T-cell, 24 h) [nM] | EC50 [2] [nM]
19 | CC[C@@](C)(N)c1cnc(O[C@@H]2C[C@H](S(C)(=O)=O)[C@H]2C)c2cnc(Nc3ccc4c(n3)[C@@H](C)[C@H](C)OC4=O)cc12 (single isomer, unassigned) [Compound 151] | 0.16 | – | 9
20 | CC[C@@](C)(N)c1cnc(O[C@H](C)C[C@@H](C)S(C)(=O)=O)c2cnc(Nc3ccc4c(n3)[C@@H](C)[C@@H](C)OC4=O)cc12 (single isomer, unassigned) [Compound 152] | 0.29 | 11 | –
21 | CC[C@@](C)(N)c1cnc(O[C@H](C)CCS(C)(=O)=O)c2cnc(Nc3ccc4c(n3)[C@@H](C)[C@@H](C)OC4=O)cc12 (single isomer, unassigned) [Compound 153] | 0.27 | 25 | –
22 | C[C@@H]1OC(=O)c2ccc(Nc3cc4c(C(C)(C)N)cnc(O[C@@H](C)C[C@@H]5CCCS5(=O)=O)c4cn3)nc2[C@H]1C (single isomer, unassigned) [Compound 155] | 0.37 | 17 | –
23 | C[C@@H]1c2nc(Nc3cc4c(C(C)(C)N)cnc(OCCC[S@](C)(=N)=O)c4cn3)ccc2C(=O)OC1(C)C (single isomer, unassigned) [Compound 168] | 0.26 | 35 | –
24 | CC[C@@H](N)c1cnc(O[C@H]2C[C@@H](S(C)(=O)=O)C2)c2cnc(Nc3ccc4c(n3)[C@@H](C)C(C)(C)OC4=O)cc12 (single isomer, unassigned) [Compound 176] | 0.23 | 69 | –
25 | CC[C@@](C)(N)c1cnc(O[C@H](C)C[C@@H](C)[S@](C)(=N)=O)c2cnc(Nc3ccc4c(n3)C3(CC3)[C@@H](C)OC4=O)cc12 (single isomer, unassigned) [Compound 181] | 0.18 | 85 | –
26 | CC[C@@](C)(N)c1cnc(O[C@H](C)C[C@@H](C)[S@@](C)(=N)=O)c2cnc(Nc3ccc4c(n3)C(C)(C)[C@@H](C)OC4=O)cc12 (single isomer, unassigned) [Compound 182] | 0.16 | – | 21
27 | CC[C@@](C)(N)c1cnc(O[C@H](C)C[C@@H](C)[S@@](C)(=N)=O)c2cnc(Nc3ccc4c(n3)C(C)(C)[C@@H](C)OC4=O)cc12 (single isomer, unassigned) [Compound 183] | 0.16 | – | 43
28 | CC[C@@](C)(N)c1cnc(O[C@H](C)C[C@@H](C)S(C)(=O)=O)c2cnc(Nc3ccc4c(n3)C(C)(C)[C@H](C)OC4=O)cc12 (single isomer, unassigned) [Compound 186] | 0.15 | 15 | –
29 | C[C@@H]1c2nc(Nc3cc4c(C(C)(C)N)cnc(OC5CS(=O)(=O)C5)c4cn3)ccc2C(=O)OC1(C)C [Compound 3] | 0.12 | 39 | –
30 | C[C@@H]1OC(=O)c2cc(Nc3cncc4c(OCCCS(C)(=O)=O)ncc(C(C)(C)N)c34)cnc2[C@H]1C [Compound 7] | 0.28 | 11 | –
31 | CC(C)(N)c1cnc(O[C@H]2C[C@@H](S(C)(=O)=O)C2)c2cnc(Nc3ccc4c(n3)C(C)(C)COC4=O)cc12 [Compound 11] | 0.29 | 39 | –
32 | C[C@@H]1OC(=O)c2ccc(Nc3cc4c(C(C)(C)N)cnc(O[C@H]5C[C@@H](S(C)(=O)=O)C5)c4cn3)nc2[C@H]1C [Compound 13] | 0.12 | 15 | –
33 | C[C@@H]1OC(=O)c2ccc(Nc3cc4c(C(C)(C)N)cnc(OC5CN(S(C)(=O)=O)C5)c4cn3)nc2[C@H]1C [Compound 15] | 0.1 | 13 | –
34 | C[C@@H]1c2nc(Nc3cc4c(C(C)(C)N)ccc(O[C@H]5C[C@@H](S(C)(=O)=O)C5)c4cn3)ccc2C(=O)OC1(C)C [Compound 27] | 0.08 | 15 | –
35 | C[C@@H]1c2nc(Nc3cc4c(C(C)(C)N)cnc(N[C@H]5C[C@@H](S(C)(=O)=O)C5)c4cn3)ccc2C(=O)OC1(C)C [Compound 28] | 0.14 | 250 | –
36 | CC[C@@](C)(N)c1cnc(O[C@H]2C[C@@H](S(C)(=O)=O)C2)c2cnc(Nc3ccc4c(n3)[C@@H](C)[C@H](C)OC4=O)cc12 [Compound 38] | 0.12 | 5 | –
